Measured values as given in US10994015B2, “EGFR proteolysis targeting chimeric molecules and associated methods of use” (Arvinas Operations, Inc., priority 2016, dated 2021).
pIC50: −log10 of the molar value.

How the values were obtained:
EGFR L858R/T790M = EGFR L858R/T790M (Homo sapiens (Human), UniProt P00533, L858R/T790M); assay: TR-FRET assay for ERBB kinases; assay type: biochemical; conditions: geometric mean if measured more than once
How it was run: (§1)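 HEPES pH 7.5 buffer with 10 mM MgCl2 and 1 mM DTT; 10 min enzyme–compound pre-incubation. A 10 min room-temperature reaction was initiated by a mix carrying 3 mM ATP, stopped with EDTA, and detected by time-resolved FRET at 340 nm excitation.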

EGFR L858R/T790M/C797S = EGFR L858R/T790M/C797S (Homo sapiens (Human), UniProt P00533, C797S/L858R/T790M); assay: TR-FRET assay for ERBB kinases; assay type: biochemical; conditions: geometric mean if measured more than once
How it was run: as §1

EGFR WT = EGFR WT (Homo sapiens (Human), UniProt P00533); assay: TR-FRET assay for ERBB kinases; assay type: biochemical; conditions: geometric mean if measured more than once
EGFR WT, sequence (P00533 25-1210): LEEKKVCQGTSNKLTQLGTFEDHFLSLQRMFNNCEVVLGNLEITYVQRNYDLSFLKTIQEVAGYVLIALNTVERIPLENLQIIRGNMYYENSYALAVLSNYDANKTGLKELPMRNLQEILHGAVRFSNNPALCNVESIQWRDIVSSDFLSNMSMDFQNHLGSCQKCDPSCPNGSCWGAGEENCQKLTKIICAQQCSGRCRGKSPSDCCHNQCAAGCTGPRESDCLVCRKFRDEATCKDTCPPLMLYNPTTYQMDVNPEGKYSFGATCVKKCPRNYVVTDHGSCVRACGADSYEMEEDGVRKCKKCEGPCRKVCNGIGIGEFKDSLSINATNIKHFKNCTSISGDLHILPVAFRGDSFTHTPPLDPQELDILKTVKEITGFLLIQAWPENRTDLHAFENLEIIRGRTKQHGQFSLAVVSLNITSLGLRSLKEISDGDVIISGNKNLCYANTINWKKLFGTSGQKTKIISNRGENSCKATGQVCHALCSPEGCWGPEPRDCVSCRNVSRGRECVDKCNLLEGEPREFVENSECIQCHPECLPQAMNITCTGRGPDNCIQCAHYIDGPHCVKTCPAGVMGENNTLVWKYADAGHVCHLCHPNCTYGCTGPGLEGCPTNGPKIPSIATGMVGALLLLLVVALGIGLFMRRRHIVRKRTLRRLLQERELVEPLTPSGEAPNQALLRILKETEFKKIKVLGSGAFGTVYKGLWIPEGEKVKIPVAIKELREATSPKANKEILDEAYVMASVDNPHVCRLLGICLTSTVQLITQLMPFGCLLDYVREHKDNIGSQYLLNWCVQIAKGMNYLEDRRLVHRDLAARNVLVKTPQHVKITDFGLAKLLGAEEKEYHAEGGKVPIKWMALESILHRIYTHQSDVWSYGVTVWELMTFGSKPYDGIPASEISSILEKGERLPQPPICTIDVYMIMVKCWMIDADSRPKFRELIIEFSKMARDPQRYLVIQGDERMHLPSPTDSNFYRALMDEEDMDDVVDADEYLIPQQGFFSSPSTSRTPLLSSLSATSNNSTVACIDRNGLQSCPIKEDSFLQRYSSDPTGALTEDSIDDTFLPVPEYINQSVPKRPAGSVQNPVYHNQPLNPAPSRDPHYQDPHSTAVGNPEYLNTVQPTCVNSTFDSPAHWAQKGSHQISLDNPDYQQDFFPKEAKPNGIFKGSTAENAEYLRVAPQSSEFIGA
How it was run: as §1

EGFR Exon20NPG = EGFR Exon20NPG (Homo sapiens (Human), UniProt P00533, INS770NPG); assay: TR-FRET assay for ERBB kinases; assay type: biochemical; conditions: geometric mean if measured more than once
EGFR Exon20NPG, sequence (P00533 other isoform, or with tags, fused parts or gaps del 1-694/ins NPG behind 770 limits assumed): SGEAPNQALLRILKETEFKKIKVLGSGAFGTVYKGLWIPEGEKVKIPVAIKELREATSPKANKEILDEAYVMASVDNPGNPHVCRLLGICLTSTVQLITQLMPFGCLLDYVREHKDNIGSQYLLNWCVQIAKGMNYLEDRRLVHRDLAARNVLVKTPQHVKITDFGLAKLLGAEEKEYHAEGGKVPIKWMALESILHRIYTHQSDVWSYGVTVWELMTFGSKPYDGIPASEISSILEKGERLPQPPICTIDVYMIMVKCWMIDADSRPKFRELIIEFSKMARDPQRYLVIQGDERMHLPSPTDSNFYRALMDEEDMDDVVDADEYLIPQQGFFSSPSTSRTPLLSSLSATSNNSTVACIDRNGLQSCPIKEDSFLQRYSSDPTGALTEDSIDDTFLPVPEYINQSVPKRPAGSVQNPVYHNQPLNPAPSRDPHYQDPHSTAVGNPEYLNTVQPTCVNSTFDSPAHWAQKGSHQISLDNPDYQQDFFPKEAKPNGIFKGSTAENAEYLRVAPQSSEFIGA
How it was run: (§2)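 Phosphorylation of fluorescein-labeled poly-GluTyr read as TR-FRET using Tb-pY20 antibody after EDTA stop, with 340 nm excitation. Kinase reaction ran 10 min at room temperature following 10 min compound pre-incubation; substrate mix held 3 mM ATP and 30 µM peptide before addition. Buffer was HEPES pH 7.5.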

[1] = biological target: EGFR-wt (MDA-MB-231 or MCF7 or A549 or OVCAR8) (Homo sapiens (Human), UniProt P00533); assay: EGFR protein degradation assay (Western blot); assay type: cell-based; conditions: 72 hours, 300 nM to 10 nM
EGFR-wt (MDA-MB-231 or MCF7 or A549 or OVCAR8), sequence (P00533 25-1210): as the sequence (P00533 25-1210) above
How it was run: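 EGFR degradation was assessed by Western blot. Cells expressing the appropriate EGFR were seeded in 6-well plates (300,000 cells per well) and adhered overnight. Media was removed, cells were washed with cold phosphate-buffered saline, scraped into 400 μl Cell Signaling lysis buffer plus protease inhibitor cocktail, and spun once at 10 000 rpm for 10 minutes. After BCA quantification, loading buffer and reducing agent were added. Gels loaded with 10 μg protein ran at 165V for 2 hours, and bands were visualized by chemiluminescence.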

EGFR Exon 20 ASV (HeLa*) = EGFR Exon 20 ASV (HeLa*) (Homo sapiens (Human), UniProt P00533, DUP767-769); assay: EGFR protein degradation assay (Western blot); assay type: cell-based; conditions: 72 hours, 300 nM to 10 nM
EGFR Δ19/746/750 = EGFR Δ19/746/750 (Homo sapiens (Human), UniProt P00533, DEL746-750); assay: TR-FRET assay for ERBB kinases; assay type: biochemical; conditions: geometric mean if measured more than once
EGFR Δ19/746/750, sequence (P00533 other isoform, or with tags, fused parts or gaps del 1-694/del 746-750 limits assumed): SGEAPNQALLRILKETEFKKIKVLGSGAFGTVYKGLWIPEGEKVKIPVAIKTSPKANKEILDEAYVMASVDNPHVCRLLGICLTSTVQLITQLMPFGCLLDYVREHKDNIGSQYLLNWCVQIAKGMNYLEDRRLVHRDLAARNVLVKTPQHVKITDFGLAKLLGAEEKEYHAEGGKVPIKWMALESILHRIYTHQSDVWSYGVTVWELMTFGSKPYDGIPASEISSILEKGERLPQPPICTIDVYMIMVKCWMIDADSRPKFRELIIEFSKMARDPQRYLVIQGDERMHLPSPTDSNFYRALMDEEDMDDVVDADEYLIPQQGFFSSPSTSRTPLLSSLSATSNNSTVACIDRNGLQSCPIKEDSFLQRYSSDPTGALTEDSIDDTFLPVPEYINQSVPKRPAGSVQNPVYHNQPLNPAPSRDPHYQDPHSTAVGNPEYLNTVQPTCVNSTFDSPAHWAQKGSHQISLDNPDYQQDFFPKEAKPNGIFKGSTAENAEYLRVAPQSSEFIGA
How it was run: as §2

EGFR Δ19/746/750 T790M = EGFR Δ19/746/750 T790M (Homo sapiens (Human), UniProt P00533, DEL746-750/T790M); assay: TR-FRET assay for ERBB kinases; assay type: biochemical; conditions: geometric mean if measured more than once
EGFR Δ19/746/750 T790M, sequence (P00533 other isoform, or with tags, fused parts or gaps T790M/del 1-694/del 746-750 limits assumed): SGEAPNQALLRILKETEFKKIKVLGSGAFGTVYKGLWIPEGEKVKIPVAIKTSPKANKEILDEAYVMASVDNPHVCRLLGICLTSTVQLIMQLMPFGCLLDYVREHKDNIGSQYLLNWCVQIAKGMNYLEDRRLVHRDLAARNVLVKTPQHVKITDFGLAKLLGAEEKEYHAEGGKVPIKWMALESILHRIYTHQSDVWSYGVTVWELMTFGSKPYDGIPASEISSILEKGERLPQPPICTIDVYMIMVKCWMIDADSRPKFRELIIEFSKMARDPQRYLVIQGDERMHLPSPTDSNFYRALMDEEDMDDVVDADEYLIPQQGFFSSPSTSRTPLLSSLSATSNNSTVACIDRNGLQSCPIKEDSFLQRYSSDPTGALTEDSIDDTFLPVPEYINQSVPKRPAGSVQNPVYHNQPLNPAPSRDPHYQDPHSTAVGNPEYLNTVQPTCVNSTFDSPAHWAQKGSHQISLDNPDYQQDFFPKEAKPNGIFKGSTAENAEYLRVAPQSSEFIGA
How it was run: as §2

[2] = biological target: EGFR L858R/T790M/C797S triple mutant (H520*) (Homo sapiens (Human), UniProt P00533, C797S/L858R/T790M); assay: EGFR protein degradation assay (Western blot); assay type: cell-based; conditions: 72 hours, 300 nM to 10 nM
How it was run: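 EGFR loss in the triple-mutant line measured by immunoblot: clarified lysates normalised by BCA, run on 4-12% Bis-Tris gels, blotted to PVDF, probed with HRP anti-rabbit secondary. Before lysis, cells were dosed from 1, 0.3, 0.1, 0.03 and 0.01 mM DMSO stocks (not final concentrations) after overnight culture at 37° C.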

EGFR L858R/T790M, sequence (P00533 25-1210 T790M/L858R): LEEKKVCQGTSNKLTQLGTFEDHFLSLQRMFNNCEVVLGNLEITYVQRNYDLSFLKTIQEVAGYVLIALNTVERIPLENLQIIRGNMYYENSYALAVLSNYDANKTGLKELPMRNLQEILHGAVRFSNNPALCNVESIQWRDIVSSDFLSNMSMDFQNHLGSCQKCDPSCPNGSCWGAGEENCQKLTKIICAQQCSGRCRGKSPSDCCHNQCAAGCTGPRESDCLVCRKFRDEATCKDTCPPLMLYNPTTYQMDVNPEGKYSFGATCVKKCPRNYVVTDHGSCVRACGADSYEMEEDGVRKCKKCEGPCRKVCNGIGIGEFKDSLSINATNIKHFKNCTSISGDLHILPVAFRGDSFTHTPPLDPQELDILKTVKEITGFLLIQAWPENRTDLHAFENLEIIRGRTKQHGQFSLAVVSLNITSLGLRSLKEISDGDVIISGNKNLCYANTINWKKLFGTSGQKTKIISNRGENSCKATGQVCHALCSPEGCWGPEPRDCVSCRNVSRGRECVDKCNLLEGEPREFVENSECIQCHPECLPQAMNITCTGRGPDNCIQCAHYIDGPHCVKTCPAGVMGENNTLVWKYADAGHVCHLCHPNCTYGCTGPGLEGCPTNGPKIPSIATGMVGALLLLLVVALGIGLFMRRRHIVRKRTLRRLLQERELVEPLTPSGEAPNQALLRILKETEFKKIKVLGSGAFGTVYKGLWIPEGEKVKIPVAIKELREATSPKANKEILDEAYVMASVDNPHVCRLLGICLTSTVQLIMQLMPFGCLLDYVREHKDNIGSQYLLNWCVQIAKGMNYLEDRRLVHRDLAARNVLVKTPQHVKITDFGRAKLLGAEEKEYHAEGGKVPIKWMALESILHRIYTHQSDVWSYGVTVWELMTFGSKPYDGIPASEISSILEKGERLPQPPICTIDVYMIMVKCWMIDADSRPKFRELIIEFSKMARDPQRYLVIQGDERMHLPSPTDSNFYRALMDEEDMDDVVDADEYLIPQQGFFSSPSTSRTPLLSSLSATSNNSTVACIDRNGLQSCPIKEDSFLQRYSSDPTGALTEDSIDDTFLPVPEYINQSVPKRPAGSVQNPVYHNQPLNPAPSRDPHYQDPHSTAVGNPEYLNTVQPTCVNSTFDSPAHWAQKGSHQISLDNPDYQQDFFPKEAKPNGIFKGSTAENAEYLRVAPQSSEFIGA

Compound | pIC50 (EGFR L858R/T790M) | pIC50 (EGFR L858R/T790M/C797S) | pIC50 (EGFR WT) | pIC50 (EGFR Exon20NPG) | EGFR protein remaining, EGFR-wt [1] | EGFR protein remaining, EGFR Exon 20 ASV (EGFR Exon 20 ASV (HeLa*)) | pIC50 (EGFR Δ19/746/750) | pIC50 (EGFR Δ19/746/750 T790M) | EGFR protein remaining, EGFR L858R/T790M/C797S triple mutant [2]
Cc1ncsc1-c1ccc(CNC(=O)[C@@H]2C[C@@H](O)CN2C(=O)[C@H](C(C)C)N2Cc3ccccc3C2=O)c(OCCOCCN2CCN(Cc3ccc(-c4cc5c(NCc6ccccc6Cl)ncnc5[nH]4)cc3)CC2)c1 [compound 107] | 5.17 | 5.22 | 6.85 | 6.22 | C (>80% EGFR protein remaining after 72 hours of incubation with the test compound at a concentration of 300 nM) | C (>80% EGFR protein remaining after 72 hours of incubation with the test compound at a concentration of 300 nM) |  |  | 
O=C1CCC(N2C(=O)c3ccc(OCCOCCOCCOCCOCCOCCN4CCN(Cc5ccc(C6Cc7c(NCc8ccccc8Cl)ncnc7N6)cc5)CC4)cc3C2=O)C(=O)N1 (stereo not drawn) [compound 105] | < 4.52 | 4.62 | 6.01 | 6.09 | C (>80% EGFR protein remaining after 72 hours of incubation with the test compound at a concentration of 300 nM) | C (>80% EGFR protein remaining after 72 hours of incubation with the test compound at a concentration of 300 nM) |  |  | 
Cc1ncsc1-c1ccc(CNC(=O)[C@@H]2C[C@@H](O)CN2C(=O)[C@H](C(C)C)N2Cc3ccccc3C2=O)c(OCCOCCOCCOCCN2CCN(Cc3ccc(-c4cc5c(NCc6ccccc6Cl)ncnc5[nH]4)cc3)CC2)c1 [compound 109] | 5.22 | 5.05 | 6.74 | 6.24 | C (>80% EGFR protein remaining after 72 hours of incubation with the test compound at a concentration of 300 nM) | C (>80% EGFR protein remaining after 72 hours of incubation with the test compound at a concentration of 300 nM) |  |  | 
Cc1ncsc1-c1ccc([C@H](C)NC(=O)[C@@H]2C[C@@H](O)CN2C(=O)[C@@H](NC(=O)CN2CCN(CCOCCOCCOCCOCC#Cc3cccc4c3C(=O)N(C(C(=O)Nc3nccs3)c3cc(F)ccc3O)C4)CC2)C(C)(C)C)cc1 (stereo partly drawn) [compound 309] | 6.92 | 7.60 | 8.14 |  |  |  | 5.72 | 5.29 | C (>80% EGFR protein remaining after 72 hours of incubation with the test compound at a concentration of 300 nM)
O=C1CCC(N2C(=O)c3ccc(OCCN4CCN(Cc5ccc(C6Cc7c(NCc8ccccc8Cl)ncnc7N6)cc5)CC4)cc3C2=O)C(=O)N1 (stereo not drawn) [compound 101] | 5.47 | 5.44 | 7.92 | 7.16 | C (>80% EGFR protein remaining after 72 hours of incubation with the test compound at a concentration of 300 nM) | C (>80% EGFR protein remaining after 72 hours of incubation with the test compound at a concentration of 300 nM) |  |  | 
COC1CCN(c2nccc(Nc3cc4c(cn3)nc(COCCN3CCN(c5ccc(OCCCN6CCN(c7ccc8c(c7)C(=O)N(C7CCC(=O)NC7=O)C8=O)CC6)cc5)CC3)n4C(C)C)n2)CC1 (stereo not drawn) [Example 301, 2-(2,6-dioxopiperidin-3-yl)-5-(4-(3-(4-(4-(2-((1-isopropyl-6-((2-(4-methoxypiperidin-1-yl)pyrimidin-4-yl)amino)-1H-imidazo[4,5-c]pyridin-2-yl)methoxy)ethyl)piperazin-1-yl)phenoxy)propyl)piperazin-1-yl)isoindoline-1,3-dione] | 6.62 | 7.47 | 5.55 |  |  |  | 5.80 | 6.57 | C (>80% EGFR protein remaining after 72 hours of incubation with the test compound at a concentration of 300 nM)
Cc1ncsc1-c1ccc([C@H](C)NC(=O)[C@@H]2C[C@@H](O)CN2C(=O)[C@@H](NC(=O)COCCCOc2ccc(N3CCN(CCOCc4nc5cnc(Nc6ccnc(-c7cnn(S(=O)(=O)C8CC8)c7)n6)cc5n4C(C)C)CC3)cc2)C(C)(C)C)cc1 [compound 306] | 7.28 | 7.80 | 4.89 |  |  |  | 6.42 | 7.68 | A (≤50% EGFR protein remaining after 72 hours of incubation with the test compound at a concentration between 300 nM and 10 nM)
CC(C)n1nc(N2CC(CN3CCN(CC4CCN(c5ccc6c(c5)C(=O)N(C5CCC(=O)NC5=O)C6=O)CC4)CC3)C2)c2cnc(Nc3ccnc(-c4cnn(S(=O)(=O)C5CC5)c4)n3)cc21 (stereo not drawn) [compound 314] | 7.01 | 7.70 | 7.05 |  |  |  | 5.00 | 5.28 | C (>80% EGFR protein remaining after 72 hours of incubation with the test compound at a concentration of 300 nM)
CC(C)n1nc(N2CCN(CC3CCN(c4ccc5c(c4)C(=O)N(C4CCC(=O)NC4=O)C5=O)CC3)CC2)c2cnc(Nc3ccnc(-c4cnn(S(=O)(=O)C5CC5)c4)n3)cc21 (stereo not drawn) [compound 312] | 9.17 | 9.46 | 7.02 |  |  |  | 6.77 | 8.31 | B (≤80% and >50% EGFR protein remaining after 72 hours of incubation with the test compound at a concentration between 300 nM and 10 nM)
Cc1ncsc1-c1ccc([C@H](C)NC(=O)[C@@H]2C[C@@H](O)CN2C(=O)[C@@H](NC(=O)COCCOCCOCCN2CCN(CCOCC#Cc3cccc4c3C(=O)N(C(C(=O)Nc3nccs3)c3cc(F)ccc3O)C4)CC2)C(C)(C)C)cc1 (stereo partly drawn) [compound 310] | 6.96 | 7.66 | 6.85 |  |  |  | 5.22 | 5.08 | B (≤80% and >50% EGFR protein remaining after 72 hours of incubation with the test compound at a concentration between 300 nM and 10 nM)
CC(C)n1nc(N2CC(CN[C@H]3C[C@H](Oc4ccc5c(c4)C(=O)N(C4CCC(=O)NC4=O)C5=O)C3)C2)c2cnc(Nc3ccnc(-c4cnn(S(=O)(=O)C5CC5)c4)n3)cc21 (stereo partly drawn) [compound 319] | 8.64 | 9.10 | 8.38 |  |  |  | 8.89 | 9.52 | A (≤50% EGFR protein remaining after 72 hours of incubation with the test compound at a concentration between 300 nM and 10 nM)
Cc1ncsc1-c1ccc([C@H](C)NC(=O)[C@@H]2C[C@@H](O)CN2C(=O)[C@@H](NC(=O)COCCOCCCNCC2CN(c3nn(C(C)C)c4cc(Nc5ccnc(-c6cnn(S(=O)(=O)C7CC7)c6)n5)ncc34)C2)C(C)(C)C)cc1 [compound 308] | 9.04 | 9.57 | 6.92 |  |  |  | 7.28 | 8.68 | B (≤80% and >50% EGFR protein remaining after 72 hours of incubation with the test compound at a concentration between 300 nM and 10 nM)
Cc1ncsc1-c1ccc([C@H](C)NC(=O)[C@@H]2C[C@@H](O)CN2C(=O)[C@@H](NC(=O)COCCN2CCN(CCOCCOCCOCC#Cc3cccc4c3C(=O)N(C(C(=O)Nc3nccs3)c3cc(F)ccc3O)C4)CC2)C(C)(C)C)cc1 (stereo partly drawn) [compound 311] | 7.19 | 7.80 | 7.01 |  |  |  | 5.05 | 5.34 | B (≤80% and >50% EGFR protein remaining after 72 hours of incubation with the test compound at a concentration between 300 nM and 10 nM)
O=C1CCC(N2C(=O)c3ccc(OCCOCCOCCN4CCN(Cc5ccc(-c6cc7c(NCc8ccccc8Cl)ncnc7[nH]6)cc5)CC4)cc3C2=O)C(=O)N1 (stereo not drawn) [Example 17, 5-(2-(2-(2-(4-(4-(4-((2-chlorobenzyl)amino)-7H-pyrrolo[2,3-d]pyrimidin-6-yl)benzyl)piperazin-1-yl)ethoxy)ethoxy)ethoxy)-2-(2,6-dioxopiperidin-3-yl)isoindoline-1,3-dione] | 5.14 | 5.31 | 6.66 | 6.72 | C (>80% EGFR protein remaining after 72 hours of incubation with the test compound at a concentration of 300 nM) | C (>80% EGFR protein remaining after 72 hours of incubation with the test compound at a concentration of 300 nM) |  |  | 
